Reference: patent US6603046B1, “Bis-aromatic a,β-unsaturated ketones” (Lica Pharmaceuticals A/S, priority 1992, dated 2003)
Converted amounts (≈) assume the structure as drawn.

Experiments:
Eimeria tenella = experiment: Anticoccidial activity in chickens infected with Eimeria tenella (Example 28); type: in vivo; details: for feed consumption after 7 days of treatment / feed consumption after 14 days of treatment: amount of feed consumed per kg chicken weight gain, doses as Table 28.1; for Weight gain in 7 days after initiation of treatment / Weight gain in 14 days after initiation of treatment: in feed: salinomycin 70 ppm, 2,5 m4′ac and 2,4 mc 30 mg/kg/day, licochalcone A 10 mg/kg/day; for Mortality: number of chickens, groups of 35, licochalcone A 20
P. yoelii strain YM = P. yoelii strain YM infection in mice, parasitemia and mortality (Example 16); type: in vivo, BALB/c mice; details: Table 16.12
[1] = tested on: chloroquine resistant P. falciparum DD2 strain; experiment: In vitro growth of P. falciparum DD2, 3H-hypoxanthine uptake (Example 15); type: cell-based, Plasmodium falciparum; details: title: percentage inhibition of 3H-hypoxanthine uptake
L. major promastigotes = L. major promastigotes from 4-days cultures, 3H-thymidine uptake (Examples 5, 14); type: cell-based, Leishmania major; details: Leishmania major, Table 14.1, read-out: percentage inhibition of promastigotes (upper figure)
In short: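 Promastigotes harvested on day 4 of culture were exposed to compound, then pulsed with 100 μC 3H-thymidine for a further 18 h. Cells were collected on filter paper, washed, and incorporated radioactivity counted by scintillation.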

[2] = tested on: chloroquine-sensitive P. falciparum 3D7A strain; experiment: In vitro growth of P. falciparum 3D7A, 3H-hypoxanthine uptake (Example 15); type: cell-based, Plasmodium falciparum; details: for Percentage inhibition of 3H-hypoxanthine uptake (mean ± SEM): title: percentage inhibition of 3H-hypoxanthine uptake
human lymphocytes = experiment: Lymphocyte Proliferation Assay, 3H-thymidine incorporation (Example 13); details: Homo sapiens, Lymphocyte, read-out: inhibition of lymphocytes (lower figure)
P. falciparum = P. falciparum growth in vitro (Table 14.1, strain not stated); type: cell-based; details: Plasmodium falciparum, read-out: inhibition of malaria parasites (middle figure) (converted)
Protocol: The P. falciparum experimental setup was as described in Example 15.
Testing of the effect of drugs and serum on the in vitro growth of the parasites. The experiments in which compounds were tested for their ability to inhibit parasite growth were performed by a modification of the method originally described by Jensen et al. (1982). Fifty μl of parasitized erythrocytes (parasitemia approximately 1%) in a concentration of 5×10^8/ml and 50 μl of RPMI medium containing different concentrations of the test compound was added to each well of a 96 well flat-bottomed microtiter plate (Nunc). The cultures were then incubated for 48 hours, 24 hours before termination of the culture adding 20 μl of 3-H-hypoxanthine (40 uCi/ml) (New England Nuclear, Boston, Mass., USA) was added to each well. The cultures were then harvested onto glass fiber filters using a Skatron cell harvester (Skatron, Lierbyen, Norway), and the incorporation of 3-H-hypoxanthine into the DNA of dividing parasites was determined by liquid scintillation spectrometry.

[3] = D + 5, i.p. 40 mg/kg twice daily
[4] = D + 6, i.p. 10 mg/kg twice daily
[5] = D + 6, i.p. 20 mg/kg twice daily
[6] = D + 6, i.p. 30 mg/kg twice daily
[7] = D + 6, i.p. 40 mg/kg twice daily
[8] = D + 8, i.p. 20 mg/kg twice daily
[9] = D + 8, i.p. 30 mg/kg twice daily
[10] = D + 10, i.p. 30 mg/kg twice daily

| Structure (SMILES) | feed consumption after 7 days of treatment (Eimeria tenella) | feed consumption after 14 days of treatment (Eimeria tenella) | Weight gain in 7 days after initiation of treatment (Eimeria tenella) [grams per chicken] | Weight gain in 14 days after initiation of treatment (Eimeria tenella) | Mortality (Eimeria tenella) | mortality (no. of dead mice/total no. of tested mice) (P. yoelii strain YM; [4]) | % parasitemia (P. yoelii strain YM; [5]) [%] | mortality (no. of dead mice/total no. of tested mice) (P. yoelii strain YM; [5]) | % parasitemia (P. yoelii strain YM; [6]) [%] | mortality (no. of dead mice/total no. of tested mice) (P. yoelii strain YM; [6]) | mortality (no. of dead mice/total no. of tested mice) (P. yoelii strain YM; [7]) | mortality (no. of dead mice/total no. of tested mice) (P. yoelii strain YM; [8]) | % parasitemia (P. yoelii strain YM; [9]) [%] | mortality (no. of dead mice/total no. of tested mice) (P. yoelii strain YM; [9]) | mortality (no. of dead mice/total no. of tested mice) (P. yoelii strain YM; [10]) | other results |
| --- | --- | --- | --- | --- | --- | --- | --- | --- | --- | --- | --- | --- | --- | --- | --- | --- |
| COc1ccc(/C=C/C(=O)c2ccccc2)c(OC)c1 [2,4mc, 2,4-dimethoxychalcone] | 1.30 | 1.48 | 380 | 803^ grams per chicken | 1 | (5/5) | 85 | 4/5 | 29 | 3/5 | (5/5) | (5/5) | 15 | 4/5 | 4/5 | % parasitemia (P. yoelii strain YM; [3]): 78%; mortality (no. of dead mice/total no. of tested mice) (P. yoelii strain YM; [3]): 4/5; % parasitemia (P. yoelii strain YM; [10]): 65%; mortality (no. of dead mice/total no. of tested mice) (P. yoelii strain YM; D + 12, i.p. 30 mg/kg twice daily): (5/5) |
| C=CCOc1ccc(C(=O)/C=C/c2cc(OC)ccc2OC)cc1 [2,5-Dimethoxy-4′-allyloxychalcone, 2,5-dimethoxy-4′-prop-2enyloxychalcone] | 1.31 | 1.54 | 366 | 804^ grams per chicken | 2 | (5/5) | 79 | 4/5 | 62 | 3/5 | (5/5) | (5/5) | 78 | 4/5 | (5/5) | Growth in % of control (mean ± SEM) ([1]; 0.5 μg/ml): 15.8 ± 13.2%; Growth in % of control (mean ± SEM) ([1]; 1 μg/ml): 12.1 ± 13.7%; Growth in % of control (mean ± SEM) ([1]; 5 μg/ml): 45.3 ± 7.2%; Growth in % of control (mean ± SEM) ([1]; 10 μg/ml): 74.4 ± 4.4% |
| O=C(/C=C/c1ccccc1)c1ccc(O)cc1 [4′-Hydroxychalcone, 4′-hydroxychalcone] | – | – | – | – | – | – | – | – | – | – | – | – | – | – | – | inhibition at 0.5 µg/mL (L. major promastigotes; 0.5 μg/ml): 26.4 ± 6.5%; inhibition at 1 µg/mL (L. major promastigotes; 1 μg/ml): 37.3 ± 13.6%; inhibition at 5 µg/mL (L. major promastigotes; 5 μg/ml): 73.4 ± 15.3%; inhibition at 10 µg/mL (L. major promastigotes; 10 μg/ml): 90.1 ± 6.5%; IC50 ([2]; Plasmodium falciparum, read-out: concentration in which growth was retarded by 50%): 1 to 5 µg/mL (≈ 4.46 to 22.3 µM); Percentage inhibition of 3H-hypoxanthine uptake (mean ± SEM) ([2]; 0.5 μg/ml): 29.9 ± 10.7%; Percentage inhibition of 3H-hypoxanthine uptake (mean ± SEM) ([2]; 1 μg/ml): 40.5 ± 11.1%; Percentage inhibition of 3H-hypoxanthine uptake (mean ± SEM) ([2]; 5 μg/ml): 64.2 ± 8.5%; Percentage inhibition of 3H-hypoxanthine uptake (mean ± SEM) ([2]; 10 μg/ml): 95.5 ± 1.1%; inhibition at 1 µg/mL (human lymphocytes): 3.6%; inhibition at 5 µg/mL (human lymphocytes): 10.2%; inhibition at 10 µg/mL (human lymphocytes): 17%; inhibition at 0.5 µg/mL (P. falciparum; 0.5 μg/ml): 29.9%; inhibition at 1 µg/mL (P. falciparum; 1 μg/ml): 40.5%; inhibition at 5 µg/mL (P. falciparum; 5 μg/ml): 64.3%; inhibition at 10 µg/mL (P. falciparum; 10 μg/ml): 95.6% |
